Experiment [1] concerns transplanted tumors. Briefly: Transplanted tumor assay. Type of experiment: in vivo. As to conditions: F1 hybrid mice; compound generally by infusion by tail tether. As to the method: F1 hybrid mice were used in the assay. The mice receive ascites fluid or dilutions of tumor brei on Day 0. A sample of the inocula is incubated in thioglycolate media as a check for gross contamination of the tumor material. After all test animals are inoculated with tumors, they are randomized for the assay. Control animals receive vehicle, while treated animals receive an invention compound dissolved in the vehicle, generally by infusion by tail tether. All animals are monitored daily for acute toxicity and other clinical signs. Survival is checked daily for the control group and treated group. The assay generally is continued for 60 days, at which time all surviving animals are euthanized.

Experiment [2] concerns PDGF receptor. Briefly: PDGF receptor autophosphorylation in rat aorta smooth muscle cells. It is filed as cell-based. As to conditions: read-out: Inhibition of PDGF-Stimulated Receptor Auto Phosphorylation in Rat Aortic Smooth Muscle Cells (IC50); PDGF-BB 30 ng/mL for 5 minutes after 2 hours with compound. The protocol: Rat aorta smooth muscle cells (RASMC) were isolated from the thoracic aorta of rats and explanted according to the method of Ross, J. Cell. Biol., 30:172-186 (1971). Cells were grown in Dulbecco's modified Eagle's medium (DMEM, Gibco) containing 10% fetal calf serum (FBS, Hyclone, Logan, Utah), 1% glutamine (Gibco) and 1% penicillin/streptomycin (Gibco). Cells were identified as smooth muscle cells by their "hill and valley" growth pattern and by fluorescent staining with a monoclonal antibody specific for SMC ∝-actin (Sigma). RASMC were used between passages 5 and 20 for all experiments. Test compounds were prepared in dimethylsulfoxide (DMSO) in order to achieve consistency in the vehicle and to ensure compound solubility. Appropriate DMSO controls were simultaneously evaluated with the test compounds.
RASMC were grown to confluency in 100 mm dishes. Growth medium was removed and replaced with serum-free medium and cells were incubated at 37°C for an additional 24 hours. Test compounds were then added directly to the medium and cells incubated for an additional 2 hours. After 2 hours, PDGF-BB was added at a final concentration of 30 ng/mL for 5 minutes at 37°C to stimulated autophosphorylation of the PDGF receptor. Following growth factor treatment, the medium was removed, and cells were washed with cold phosphate-buffered saline and immediately lysed with 1 mL of lysis buffer (50 mM HEPES[pH 7.5], 150 mM NaCl, 10% glycerol, 1% Triton X-100, 1 mM EDTA, 1 mMEGTA, 50 mM NaF, 1 mM sodium orthovanadate, 30 mM p-nitrophenyl phosphate, 10 mM sodium pyrophosphate, 1 mM phenylmethyl sulfonyl fluoride, 10 µg/mL aprotinin, and 10 µg/mL leupeptin). Lysates were centrifuged at 10,000 × g for 10 minutes. […] Following the incubation, protein-A-sepharose beads were added for 2 hours with continuous mixing, and immune complexes bound to the beads washed four times with 1 mL lysis wash buffer. Immune complexes were solubilized in 30 µL of Laemmli sample buffer and electrophoresed in 4-20% SDS polyacrylamide gels. Following electrophoresis, separated proteins were transferred to nitrocellulose and immunoblotted with anti-phosphotyrosine antiserum. […] IC50 values were generated from the densitometric data.

pIC50: −log10 of the molar value.

The pIC50 is the negative decadic logarithm of the IC50, by convention in mol/L.

As to `Cn1c(=O)c(-c2c(Cl)cccc2Cl)cc2cnc(Nc3ccccc3)nc21` [Example 54, 6-(2,6-Dichlorophenyl)-8-methyl-2-phenylamino-8H-pyrido[2,3-d]pyrimidin-7-one], the “life span of animals infected with transplanted tumors” value in experiment [1] was “increased the life span”. Further, the pIC50 in experiment [2] was 7.80.

Values taken from EP0823908B1, “PYRIDO[2,3-d]PYRIMIDINES FOR INHIBITING PROTEIN TYROSINE KINASE MEDIATED [sequence] PROLIFERATION” (Warner-Lambert Company LLC, priority 1995, dated 1996).
